Experimental findings from US12258328B2, “6-membered heteroaryl-containing aminopyridine compounds as EGFR inhibitors” (YUHAN CORPORATION, priority 2021, dated 2025) are described below.

Like-named read-outs stand apart in the source and are kept apart here.

Experiment [1] concerns the target EGFR del19/T790M/C797S (Homo sapiens, UniProt P00533, C797S/DEL746-750/T790M). The experiment can be described thus: Biochemical EGFR kinase assay (Lance Ultra TR-FRET), triple mutant del19/T790M/C797S. The method, boiled down:
(§1)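 Step 1: compound in kinase buffer, 0.003–10 μM. Step 2: kinase reaction 1 h at room temperature. Step 4: TR-FRET read at 615/665 nm; IC50 calculated.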
On the technique in general: TR-FRET usually uses a lanthanide donor and a delayed reading to cut background.

Experiment [2] deals with EGFR L858R/T790M/C797S (Homo sapiens, UniProt P00533, C797S/L858R/T790M). The experiment can be described thus: Biochemical EGFR kinase assay (Lance Ultra TR-FRET), triple mutant L858R/T790M/C797S. The method, boiled down:
as §1

Experiment [3] deals with EGFR del19/C797S (Homo sapiens, UniProt P00533, C797S/DEL746-750). Briefly: Biochemical EGFR kinase assay (Lance Ultra TR-FRET), double mutant del19/C797S. The method, boiled down:
as §1

Experiment [4] has as its target EGFR L858R/C797S (Homo sapiens, UniProt P00533, C797S/L858R). The experiment can be described thus: Biochemical EGFR kinase assay (Lance Ultra TR-FRET), double mutant L858R/C797S. The method, boiled down: as §1
Experiment [5] addresses EGFR wildtype (Homo sapiens, UniProt P00533). Briefly: Biochemical EGFR kinase assay (Lance Ultra TR-FRET), wildtype. The method in brief:
as §1

Where [6] appears, read: IC50 del19/T790M/C797S (nM) 100 μM ATP, 100 μM ATP.
Setting [7] is: Km ATP, read-out: IC50 del19/T790M/C797S (nM) Km ATP.
Where [8] appears, read: IC50 L858R/T790M/C797S (nM) 100 μM ATP, 100 μM ATP.
Setting [9] is: Km ATP, read-out: IC50 L858R/T790M/C797S (nM) Km ATP.
Where [10] appears, read: IC50 del19/C797S (nM) 100 μM ATP, 100 μM ATP.
[11] abbreviates: Km ATP, read-out: IC50 del19/C797S (nM) Km ATP.
The mark [12] stands for this setting: IC50 L858R/C797S (nM) 100 μM ATP, 100 μM ATP.
The mark [13] stands for this setting: Km ATP, read-out: IC50 L858R/C797S (nM) Km ATP.
The mark [14] stands for this setting: IC50 WT (nM) 100 μM ATP, 100 μM ATP.
Where [15] appears, read: Km ATP, read-out: IC50 WT (nM) Km ATP.
Setting [16] is: IC50 del19/T790M/C797S, 100 μM ATP.
Where [17] appears, read: IC50 L858R/T790M/C797S, 100 μM ATP.

EGFR L858R/T790M/C797S, sequence (P00533 25-1210 T790M/C797S/L858R): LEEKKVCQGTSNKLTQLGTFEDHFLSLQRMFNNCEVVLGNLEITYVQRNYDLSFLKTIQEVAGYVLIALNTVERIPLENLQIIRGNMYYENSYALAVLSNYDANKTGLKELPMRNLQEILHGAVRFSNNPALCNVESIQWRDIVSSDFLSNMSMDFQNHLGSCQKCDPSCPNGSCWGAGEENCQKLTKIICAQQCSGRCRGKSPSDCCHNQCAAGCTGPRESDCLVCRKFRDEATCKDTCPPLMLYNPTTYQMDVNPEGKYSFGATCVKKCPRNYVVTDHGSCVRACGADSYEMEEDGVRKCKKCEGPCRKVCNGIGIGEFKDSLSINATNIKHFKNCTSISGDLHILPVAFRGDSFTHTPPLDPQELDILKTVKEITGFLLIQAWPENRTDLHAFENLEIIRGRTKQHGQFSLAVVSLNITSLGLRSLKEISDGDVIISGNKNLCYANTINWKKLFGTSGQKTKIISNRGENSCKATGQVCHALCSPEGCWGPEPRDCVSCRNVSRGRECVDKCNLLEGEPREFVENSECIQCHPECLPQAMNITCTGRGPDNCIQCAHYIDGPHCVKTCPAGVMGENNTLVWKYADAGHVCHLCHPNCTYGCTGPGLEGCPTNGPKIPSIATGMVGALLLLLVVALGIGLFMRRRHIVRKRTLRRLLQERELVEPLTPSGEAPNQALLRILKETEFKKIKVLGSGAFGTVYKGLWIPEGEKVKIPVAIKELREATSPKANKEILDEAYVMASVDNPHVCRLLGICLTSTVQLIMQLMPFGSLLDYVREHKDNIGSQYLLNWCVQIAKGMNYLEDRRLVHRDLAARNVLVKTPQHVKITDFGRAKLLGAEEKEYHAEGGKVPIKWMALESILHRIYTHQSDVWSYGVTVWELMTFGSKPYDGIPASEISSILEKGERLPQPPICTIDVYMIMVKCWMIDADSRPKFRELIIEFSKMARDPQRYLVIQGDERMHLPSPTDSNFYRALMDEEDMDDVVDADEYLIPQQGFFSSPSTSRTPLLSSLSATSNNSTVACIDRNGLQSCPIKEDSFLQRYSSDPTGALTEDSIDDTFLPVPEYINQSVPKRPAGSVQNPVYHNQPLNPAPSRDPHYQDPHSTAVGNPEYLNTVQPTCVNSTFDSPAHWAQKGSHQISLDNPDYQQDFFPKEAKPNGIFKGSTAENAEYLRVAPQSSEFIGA
EGFR L858R/C797S, sequence (P00533 25-1210 C797S/L858R): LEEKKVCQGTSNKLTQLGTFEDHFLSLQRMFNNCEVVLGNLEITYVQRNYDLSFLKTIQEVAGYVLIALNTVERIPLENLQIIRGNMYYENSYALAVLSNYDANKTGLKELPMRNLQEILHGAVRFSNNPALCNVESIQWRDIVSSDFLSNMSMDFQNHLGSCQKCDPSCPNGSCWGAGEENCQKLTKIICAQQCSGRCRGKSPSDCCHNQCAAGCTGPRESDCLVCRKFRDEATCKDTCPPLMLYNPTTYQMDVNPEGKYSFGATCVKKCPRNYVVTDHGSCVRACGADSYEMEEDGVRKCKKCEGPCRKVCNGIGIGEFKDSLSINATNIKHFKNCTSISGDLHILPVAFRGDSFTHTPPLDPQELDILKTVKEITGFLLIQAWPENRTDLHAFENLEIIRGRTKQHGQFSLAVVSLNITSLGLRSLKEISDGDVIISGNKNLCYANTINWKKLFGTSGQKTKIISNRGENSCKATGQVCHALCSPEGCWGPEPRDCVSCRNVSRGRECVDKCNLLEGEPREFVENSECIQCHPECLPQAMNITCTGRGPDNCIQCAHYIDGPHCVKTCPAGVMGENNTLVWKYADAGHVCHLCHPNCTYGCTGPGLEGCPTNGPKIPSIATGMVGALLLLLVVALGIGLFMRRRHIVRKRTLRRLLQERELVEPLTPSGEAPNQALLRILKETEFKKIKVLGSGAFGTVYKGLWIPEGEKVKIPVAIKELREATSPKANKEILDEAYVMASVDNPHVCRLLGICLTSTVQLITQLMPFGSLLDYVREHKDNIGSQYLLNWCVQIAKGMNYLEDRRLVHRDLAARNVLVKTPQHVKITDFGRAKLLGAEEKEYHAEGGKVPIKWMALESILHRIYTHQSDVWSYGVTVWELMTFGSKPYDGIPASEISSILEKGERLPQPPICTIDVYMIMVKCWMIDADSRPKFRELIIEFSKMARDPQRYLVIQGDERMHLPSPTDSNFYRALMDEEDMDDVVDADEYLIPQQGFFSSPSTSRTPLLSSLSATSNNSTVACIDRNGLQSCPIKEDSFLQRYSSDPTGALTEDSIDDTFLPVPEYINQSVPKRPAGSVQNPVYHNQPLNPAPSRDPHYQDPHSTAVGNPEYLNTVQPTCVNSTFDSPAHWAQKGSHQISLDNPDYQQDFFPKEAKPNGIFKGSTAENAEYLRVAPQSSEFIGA
EGFR del19/T790M/C797S, sequence (P00533 with tags, fused parts or gaps DEL746-750/T790M/C797S): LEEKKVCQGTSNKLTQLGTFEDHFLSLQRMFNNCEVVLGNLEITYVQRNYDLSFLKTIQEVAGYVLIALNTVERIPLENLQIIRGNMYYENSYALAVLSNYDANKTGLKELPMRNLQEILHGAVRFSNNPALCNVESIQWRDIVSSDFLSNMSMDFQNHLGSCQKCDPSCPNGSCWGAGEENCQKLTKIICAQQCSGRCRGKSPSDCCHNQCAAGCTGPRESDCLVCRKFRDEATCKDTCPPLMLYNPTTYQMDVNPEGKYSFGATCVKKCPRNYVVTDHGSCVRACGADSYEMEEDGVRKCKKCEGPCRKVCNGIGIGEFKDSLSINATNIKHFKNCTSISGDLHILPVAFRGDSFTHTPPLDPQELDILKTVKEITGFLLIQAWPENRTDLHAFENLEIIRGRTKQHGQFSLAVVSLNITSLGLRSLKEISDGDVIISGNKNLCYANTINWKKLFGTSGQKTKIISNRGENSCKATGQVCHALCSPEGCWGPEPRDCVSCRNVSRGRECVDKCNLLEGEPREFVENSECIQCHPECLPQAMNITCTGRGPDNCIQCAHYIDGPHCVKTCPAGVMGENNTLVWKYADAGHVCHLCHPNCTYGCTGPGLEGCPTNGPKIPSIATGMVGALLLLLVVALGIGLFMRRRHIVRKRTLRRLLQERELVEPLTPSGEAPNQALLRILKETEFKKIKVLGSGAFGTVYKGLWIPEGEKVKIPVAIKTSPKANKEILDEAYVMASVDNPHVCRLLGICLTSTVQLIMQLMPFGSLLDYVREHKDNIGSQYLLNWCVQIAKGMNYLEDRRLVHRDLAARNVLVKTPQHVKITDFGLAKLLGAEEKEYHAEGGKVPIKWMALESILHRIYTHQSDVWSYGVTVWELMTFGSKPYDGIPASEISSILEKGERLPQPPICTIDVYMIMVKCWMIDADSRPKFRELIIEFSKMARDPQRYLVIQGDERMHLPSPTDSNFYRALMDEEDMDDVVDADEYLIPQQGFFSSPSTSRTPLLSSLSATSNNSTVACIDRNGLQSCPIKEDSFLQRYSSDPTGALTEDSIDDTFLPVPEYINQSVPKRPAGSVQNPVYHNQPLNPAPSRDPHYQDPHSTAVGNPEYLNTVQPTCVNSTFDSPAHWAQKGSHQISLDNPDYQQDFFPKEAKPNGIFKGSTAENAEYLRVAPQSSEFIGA
EGFR wildtype, sequence (P00533 25-1210): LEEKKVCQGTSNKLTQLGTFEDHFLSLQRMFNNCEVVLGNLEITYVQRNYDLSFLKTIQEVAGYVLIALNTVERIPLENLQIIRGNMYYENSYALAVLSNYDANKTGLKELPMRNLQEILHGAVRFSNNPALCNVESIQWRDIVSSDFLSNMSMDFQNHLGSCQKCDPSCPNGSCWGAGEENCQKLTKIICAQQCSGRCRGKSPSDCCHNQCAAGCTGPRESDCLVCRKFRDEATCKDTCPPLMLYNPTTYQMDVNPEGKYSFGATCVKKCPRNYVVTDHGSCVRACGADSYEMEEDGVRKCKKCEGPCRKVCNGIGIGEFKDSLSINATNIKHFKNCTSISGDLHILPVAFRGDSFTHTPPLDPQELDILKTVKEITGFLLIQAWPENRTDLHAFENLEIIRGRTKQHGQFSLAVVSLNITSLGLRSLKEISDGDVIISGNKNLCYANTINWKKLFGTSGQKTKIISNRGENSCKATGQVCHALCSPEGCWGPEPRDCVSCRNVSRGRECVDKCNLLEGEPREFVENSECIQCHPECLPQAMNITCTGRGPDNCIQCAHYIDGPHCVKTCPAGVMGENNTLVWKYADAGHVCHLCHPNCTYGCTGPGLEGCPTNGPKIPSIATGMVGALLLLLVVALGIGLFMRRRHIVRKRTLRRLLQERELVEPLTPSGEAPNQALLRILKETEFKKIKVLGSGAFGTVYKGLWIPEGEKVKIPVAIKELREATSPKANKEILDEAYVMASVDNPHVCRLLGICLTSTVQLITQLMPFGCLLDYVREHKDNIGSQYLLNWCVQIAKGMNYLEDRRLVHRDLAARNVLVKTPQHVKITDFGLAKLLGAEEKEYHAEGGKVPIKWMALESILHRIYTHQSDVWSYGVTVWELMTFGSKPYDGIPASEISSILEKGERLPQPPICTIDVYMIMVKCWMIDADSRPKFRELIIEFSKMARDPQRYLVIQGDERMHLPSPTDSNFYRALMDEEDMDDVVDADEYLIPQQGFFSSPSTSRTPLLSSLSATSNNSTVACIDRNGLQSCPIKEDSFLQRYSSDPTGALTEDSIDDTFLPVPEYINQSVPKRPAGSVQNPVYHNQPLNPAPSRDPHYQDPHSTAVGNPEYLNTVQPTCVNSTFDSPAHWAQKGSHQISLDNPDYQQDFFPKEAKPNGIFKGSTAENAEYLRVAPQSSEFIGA

Take `CN(C)C[C@H]1CC[C@@H](Nc2cc(Nc3ccnc(-c4cnn(S(=O)(=O)C5CC5)c4)n3)ncc2-c2cnc(N3CCC(F)(F)CC3)cn2)CC1` [Example 74, N^2-(2-(1-(Cyclopropylsulfonyl)-1H-pyrazol-4-yl)pyrimidin-4-yl)-5-(5-(4,4-difluoropiperidin-1-yl)pyrazin-2-yl)-N^4-((1s,4s)-4-((dimethylamino)methyl)cyclohexyl)pyridine-2,4-diamine]: the IC50 in experiment [1] (setting [6]) worked out at 2.2 nM; in experiment [1] (setting [7]), 1.6 nM; in experiment [2] (setting [8]), 2.8 nM; in experiment [2] (setting [9]) it was 0.6 nM; in experiment [3] (setting [10]), 2.4 nM; in experiment [3] (setting [11]), 0.7 nM. Also, the IC50 in experiment [4] (setting [12]) worked out at 43.9 nM; in experiment [4] (setting [13]), 3.2 nM; in experiment [5] (setting [14]), 1610 nM; in experiment [5] (setting [15]), 9.1 nM.

With `O=S(=O)(C1CC1)n1cc(-c2nccc(Nc3cc(N[C@H]4CC[C@H](CCO)CC4)c(-c4cc(C(F)F)ccn4)cn3)n2)cn1` [Example 96, 2-((1r,4r)-4-((6′-((2-(1-(Cyclopropylsulfonyl)-1H-pyrazol-4-yl)pyrimidin-4-yl)amino)-4-(difluoromethyl)-[2,3′-bipyridin]-4′-yl)amino)cyclohexyl)ethan-1-ol], the IC50 was found to be 2 nM in experiment [1] (setting [6]); 0.8 nM in experiment [2] (setting [8]); 0.7 nM in experiment [2] (setting [9]); 224 nM in experiment [3] (setting [10]); 68 nM in experiment [3] (setting [11]); 2220 nM in experiment [4] (setting [12]). Further, the IC50 in experiment [4] (setting [13]) was 27.4 nM; in experiment [5] (setting [14]), over 10000 nM; in experiment [5] (setting [15]), 84.7 nM.

Turning to `O=S(=O)(C1CC1)n1cc(-c2nccc(Nc3cc(N[C@H]4CC[C@@H](CO)CC4)c(-c4ccc(N5CCC(F)(F)CC5)nn4)cn3)n2)cn1` [Example 69, ((1s,4s)-4-((2-((2-(1-(Cyclopropylsulfonyl)-1H-pyrazol-4-yl)pyrimidin-4-yl)amino)-5-(6-(4,4-difluoropiperidin-1-yl)pyridazin-3-yl)pyridin-4-yl)amino)cyclohexyl)methanol], the IC50 in experiment [1] (setting [6]) was determined as 1.6 nM; in experiment [1] (setting [7]), 1.9 nM; in experiment [2] (setting [8]), 1.4 nM; in experiment [2] (setting [9]), 0.8 nM; in experiment [3] (setting [10]) it was 5.3 nM; in experiment [3] (setting [11]), 2.4 nM. The IC50 came out at 52.7 nM in experiment [4] (setting [12]), 1.4 nM in experiment [4] (setting [13]), 4780 nM in experiment [5] (setting [14]) and 14.5 nM in experiment [5] (setting [15]).

On to `CC1CCN(S(=O)(=O)c2ccc(-c3cnc(Nc4ccnc(-c5cnn(S(=O)(=O)C6CC6)c5)n4)cc3N[C@H]3CC[C@@H](C(C)(C)O)CC3)nc2)CC1` [Example 187, 2-((1s,4s)-4-((6′-((2-(1-(Cyclopropylsulfonyl)-1H-pyrazol-4-yl)pyrimidin-4-yl)amino)-5-((4-methylpiperidin-1-yl)sulfonyl)-[2,3′-bipyridin]-4′-yl)amino)cyclohexyl)propan-2-ol], for which the IC50 in experiment [1] (setting [16]) is 239 nM; in experiment [2] (setting [17]) it was 96.9 nM; in experiment [3] (IC50 del19/C797S, 100 μM ATP) it was 178 nM; in experiment [4] (IC50 L858R/C797S, 100 μM ATP), 1950 nM; in experiment [5] (IC50 WT, 100 μM ATP) it was over 10000 nM.

As to `CN(C)CCOc1ccnc(-c2cnc(Nc3ccnc(-c4cnn(S(=O)(=O)C5CC5)c4)n3)cc2N[C@H]2CC[C@@](C)(O)CC2)c1` [Example 287, (1s,4s)-4-((6′-((2-(1-(Cyclopropylsulfonyl)-1H-pyrazol-4-yl)pyrimidin-4-yl)amino)-4-(2-(dimethylamino)ethoxy)-[2,3′-bipyridin]-4′-yl)amino)-1-methylcyclohexan-1-ol], the IC50 in experiment [1] (ATP at Km, read-out: IC50 del19/T790M/C797S, Km ATP) stood at 0.2 nM; in experiment [1] (setting [16]), 0.3 nM; in experiment [2] (ATP at Km, read-out: IC50 L858R/T790M/C797S, Km ATP), 0.1 nM; in experiment [2] (setting [17]), 0.1 nM; in experiment [3] (ATP at Km, read-out: IC50 del19/C797S, Km ATP), 0.4 nM; in experiment [3] (IC50 del19/C797S, 100 μM ATP), 1 nM. The IC50 in experiment [4] (ATP at Km, read-out: IC50 L858R/C797S, Km ATP) came to 0.8 nM; in experiment [4] (IC50 L858R/C797S, 100 μM ATP), 44 nM; in experiment [5] (ATP at Km, read-out: IC50 WT, Km ATP), 3 nM; in experiment [5] (IC50 WT, 100 μM ATP), 5140 nM.
